This is an account of results in US11129805B2, “Dual ACE C-domain/NEP inhibitors” (ANGIODESIGN (UK) LIMITED, priority 2016, dated 2021).

Structures are written as SMILES. Like-named read-outs stand apart in the source and are kept apart here.

The conditions of series [1]: cited from earlier work; for angioedema frequency: 5,770 patients with heart failure.
The conditions of series [2]: cited from earlier work.
For series [3], the system named is 10% human plasma supplemented with rhNEP (ACE and NEP activity). The series can be described thus: Metabolism of a bradykinin 1-9 spike in human plasma (LC-MS/MS). The class given is biochemical. The settings on record: for initial bradykinin 1-9 spike remaining/recovered following the incubation period: 50 ng/ml BK 1-9 spike, 10% human plasma + rhNEP 200 pg/ml, 37° C.
Method: All samples were spiked with bradykinin 1-9 (BK1-9) at a concentration of 50 ng/ml followed by an incubation period at 37° C. Recombinant human neutral endopeptidase (rhNEP) was added to all samples at a concentration of 200 pg/ml.
The concentrations of BK 1-9 are relative to the control that was plasma spiked with BK 1-9 following the incubation period (100% spike control).
Effects on Bradykinin Peptides. The metabolism of a spike of bradykinin 1-9 (50 ng/ml) in 10% human plasma supplemented with 200 pg/ml rhNEP (R&D) in vitro, followed by LC-MS/MS-based quantification of the bradykinin metabolites bradykinin 1-9, 1-8, 1-7, 1-5, and 2-9 was examined. Briefly, samples where stabilized and spiked with 200 pg/ml of stable-isotope-labelled internal standards for bradykinin 1-9, 1-8, 1-7, 1-5, and 2-9. Following C18-based solid-phase-extraction, samples were subjected to LC-MS/MS analysis using a reversed-phase analytical column (Acquity UPLC® C18, Waters) operating in line with a XEVO TQ-S triple quadrupole mass spectrometer (Waters) in MRM mode.

Another series relates to aminopeptidase P. The note with it: cited from earlier work.
For series [4] the following is noted: 573 patients with heart failure; cited from earlier work.
The test system of series [5] is human plasma supplemented with recombinant human NEP (ACE and NEP activity). The series can be described thus: RAS equilibrium analysis of angiotensin peptides in human plasma ex vivo (LC-MS/MS). The settings on record: human plasma + rhNEP 200 pg/ml.
Method: Recombinant human neutral endopeptidase (rhNEP) was added to all samples at a concentration of 200 pg/ml.
Equilibrium angiotensin peptide levels were measured in plasma samples after incubating Li-Heparin samples supplemented with recombinant human NEP (rhNEP) (R&D, 200 pg/ml) at controlled pH (7.4) for a period of 30 min at 37° C. in the presence and absence of indicated compounds and enzymes. Following equilibration, samples were stabilized and spiked with stable-isotope-labelled internal standards for each angiotensin metabolite, Ang I (Ang 1-10), Ang II (Ang 1-8), Ang 1-7, Ang 1-5, Ang 2-8, Ang 3-8, Ang 2-10, Ang 2-7, Ang 1-9, and Ang 3-7, at a concentration of 200 pg/ml. Following C18-based solid-phase-extraction, samples were subjected to LC-MS/MS analysis using a reversed-phase analytical column (Acquity UPLC® C18, Waters) operating in line with a XEVO TQ-S triple quadrupole mass spectrometer (Waters) in MRM mode.
For series [6] the following is noted: patients with hypertension, cited from earlier work.
For series [7], the system named is hypertensive animal (the high-renin mouse model). The note with it: in vivo; cited from earlier work.
The target in a further series is ACE C-domain (Homo sapiens, UniProt P12821). The settings on record: cited from earlier work.
Sequence of ACE C-domain (P12821 643-1222 limits assumed): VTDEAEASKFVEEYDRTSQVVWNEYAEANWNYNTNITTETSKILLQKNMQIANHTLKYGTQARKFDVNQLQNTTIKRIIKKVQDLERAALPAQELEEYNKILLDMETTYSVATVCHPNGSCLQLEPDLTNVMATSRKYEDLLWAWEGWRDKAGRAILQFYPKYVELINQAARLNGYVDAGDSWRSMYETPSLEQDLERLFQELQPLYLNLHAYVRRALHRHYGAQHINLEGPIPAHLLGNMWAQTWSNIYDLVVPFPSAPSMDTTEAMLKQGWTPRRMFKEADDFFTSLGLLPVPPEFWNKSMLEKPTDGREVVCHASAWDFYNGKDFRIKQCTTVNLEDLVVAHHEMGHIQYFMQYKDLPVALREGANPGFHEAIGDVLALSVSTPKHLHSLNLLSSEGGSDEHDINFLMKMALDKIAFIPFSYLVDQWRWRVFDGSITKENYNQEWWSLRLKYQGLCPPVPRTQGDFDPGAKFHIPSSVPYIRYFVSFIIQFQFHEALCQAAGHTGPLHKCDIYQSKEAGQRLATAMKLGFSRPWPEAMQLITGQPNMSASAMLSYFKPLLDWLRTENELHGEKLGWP

For `CCOC(=O)[C@H](CCc1ccccc1)N[C@@H](C)C(=O)N1CCC[C@H]1C(=O)O` [enalapril], the angioedema frequency in series [1] is recorded as 0.5%.
`O=C(N[C@H]1CCS[C@H]2CCC[C@@H](C(=O)O)N2C1=O)[C@@H](S)Cc1ccccc1` [omapatrilat]: the figures for the incidence of angioedema in series [2] (25,302 hypertensive subjects) and in series [2] (African American patients) were 2.17% and 5.53%, respectively. Besides, the blood pressure reduction entry in series [2] (comparison with enalapril) is “superior to enalapril in reducing blood pressure”. The “initial bradykinin 1-9 spike remaining/recovered following the incubation period” value in [3] is 74-85%. In addition, the metabolism of bradykinin result in series [3] (versus solvent control plasma) was “decreased metabolism of bradykinin”. Moreover, the “inhibition of aminopeptidase P” value in the series on aminopeptidase P was “inhibits”. The benefit versus lisinopril result in series [4] is listed as “trend toward greater benefit”. In addition, the “inhibition of equilibrium Ang 1-8 levels (Ang II)” value in series [5] (pH 7.4, 30 min at 37° C.) turned out to be 93.1%. Also, the “levels of Ang 1-7” value in series [5] (sentence follows the rhACE2 discussion) was “undetectable”. Besides, in [6] (versus lisinopril), the “reduction in arterial pressure” value is listed as “greater reductions in arterial pressure”. Moreover, the “excretion of ANP” value in [6] is “increased the excretion of ANP”. In addition, the angioedema frequency in [1] was 0.8%. Also, the “primary endpoint (all-cause mortality or hospitalization for heart failure)” value in [1] (comparison with enalapril) was “failed to show superiority”.
Regarding `NCCCC[C@H](N[C@@H](CCc1ccccc1)C(=O)O)C(=O)N[C@@H](Cc1c[nH]c2ccccc12)C(=O)O` [Lis-Trp], in series [7], the “Ang II formation” value is recorded as “suppression of Ang Il formation”, the blood pressure entry was “reduction in blood pressure equivalent to that achieved with the conventional ACE inhibitor lisinopril” and the “plasma BK levels” value was “leaving BK levels unchanged”.
With `NCCCC[C@H](N[C@@H](CCc1ccccc1)C(=O)O)C(=O)N1CCC[C@H]1C(=O)O` [lisinopril], the “initial bradykinin 1-9 spike remaining/recovered following the incubation period” value in series [3] is 57-70%. In addition, in series [7], the “plasma BK levels” value is “substantial increases in plasma BK levels”.
Take `O=C(N[C@@H](Cc1ccccc1)P(=O)(O)C1CCCC1C(=O)N[C@@H](Cc1c[nH]c2ccccc12)C(=O)O)OCc1ccccc1` (some centres unmarked) [RXP A380]: the C-domain selectivity on ACE C-domain is reported as ~3,000 fold.
